{
  "source": "paper PMC7887271",
  "about": "“Fast acting allosteric phosphofructokinase inhibitors block trypanosome glycolysis and cure acute African trypanosomiasis in mice” (Nature Communications, 2021)",
  "key": {"[1]": {"system": "T. b. rhodesiense", "test": "EC50 against in vitro cultured T. b. rhodesiense (STMI)", "format": "cell-based", "settings": "Trypanosoma brucei"}, "[2]": {"test": "Tolerance studies and plasma levels after multiple oral dosing", "format": "in vivo", "settings": "for Experimental plasma concentration measured @2hr after final dose: 2 h intervals", "method": "All efficacy studies were carried out using CD-1 mice in accordance with the United Kingdom Animals (Scientific Procedures) Act (1986) under Home Office regulations. Studies were performed in SPF facilities at the University of Edinburgh under licence PPL 70/8102 and at the University of Glasgow under PPL 60/4442. The experiments were approved by the local ethics committees of the respective universities. Dosing regimens used in efficacy studies were first tested for tolerance in female CD-1 mice (University of Edinburgh; 6–8 weeks old). Animals were dosed orally by gavage with CTCB compounds following the dosing regimen for each individual experiment (n = 5; Supplementary Methods 6.2).\nDosing regimens used in efficacy studies were first tested for tolerance in female CD-1 mice (University of Edinburgh; 6-8 weeks old). Animals were dosed orally by gavage with CTCB compounds following the dosing regimen for each individual experiment (n=5) as indicated. Compounds were administered in a mixture containing Cremophor EL: EtOH: D-PBS (30:10:60 v/v). Animals were monitored for up to 8 hours post-dosing. On the final day of dosing, 2 hours after the final dose, whole blood was harvested from three mice via cardiac puncture, under gaseous isoflurane anaesthesia, to obtain plasma for analyses. The remaining two mice were monitored for several days post dosing. To avoid coagulation, 100 μl of 2% sodium citrate was utilised in the syringe during the procedure and blood samples subsequently transferred to heparin coated microtubules. Blood samples were centrifuged at 800 x g for 10 minutes at room temperature. The supernatant containing the plasma was transferred to a fresh tube for determination of compound levels and further PK analysis."}, "[3]": {"test": "Metabolic stability, human liver microsomes", "format": "in vitro ADME", "settings": "read-out: HLM Clint", "method": "A HepG2 cytotoxicity assay was used to determine a cellular selectivity index. HepG2 cells were seeded into 96-well plates in EMEM medium. Compounds were assessed for their effect upon cellular viability (Supplementary Methods 5.1). Inhibition of CYP450 was determined using kits from BD Biosciences (Supplementary Methods 5.2). Metabolic stability was determined using mouse […] tested at a single concentration of 5 µM. Plasma protein binding was determined using mouse and human plasma at a single concentration of 10 µM (Supplementary Methods 5.4). All PK studies in mice were carried out by Pharmidex (Supplementary Methods 6.1).\nCompounds were tested for their metabolic stability using mouse and human liver microsomes (MLM and HLM). The compounds were tested at a single concentration of 5 µM. The samples were crashed with acetonitrile and put through protein precipitation plates. The eluent was analysed by LC/MS or LC/MS/MS."}, "[4]": {"system": "T. b. brucei Lister 427", "test": "Wash-out studies, Lister 427", "format": "cell-based", "settings": "concentrations greater than 2 to 4 µM, exposure longer than 4-6 hours, 3 days in drug free medium", "method": "In order to estimate a killing-dose for in vivo trials, a series of washout experiments were carried out: parasites were incubated with a given concentration of compound before washing out the drug and determining whether the parasites were still viable and able to proliferate. […] The existence of a small population of parasites more resistant to the effects of the CTCB compounds might be explained by subpopulations of parasites being present at different stages of the cell cycle. The parasite cultures used in the killing experiments are not synchronised, and it is likely that ATP requirement varies depending on cell cycle phase and a subpopulation with lower ATP requirement may be less susceptible to the CTCB compounds, however, this phenomenon needs further investigation.\nIn vitro ‘wash-out’ studies were performed to determine the reversibility of the action of the CTCB compounds on trypanosomes, after a certain exposure time, and thus to assess whether the compounds have a trypanocidal or trypanostatic effect. These experiments were carried out with both the T. b. brucei Lister 427 and T. b. brucei GVR35-luc strains. […] The cell suspensions were then incubated under regular culture conditions for 3 days and parasite growth monitored daily by light microscopy. […]"}, "[5]": {"system": "T. b. brucei GVR35-luc", "test": "Wash-out studies, GVR35", "format": "cell-based", "settings": "concentrations greater than 2 to 4 µM, exposure longer than 4-6 hours, 3 days in drug free medium", "method": "In vitro ‘wash-out’ studies were performed to determine the reversibility of the action of the CTCB compounds on trypanosomes, after a certain exposure time, and thus to assess whether the compounds have a trypanocidal or trypanostatic effect. These experiments were carried out with both the T. b. brucei Lister 427 and T. b. brucei GVR35-luc strains. Trypanosomes at a density of 500,000 cells/ml in culture medium were incubated with CTCB compounds at varying concentrations in 12-well plates in volumes of 1 ml for different periods of time at 37°C. Subsequently, the cultures were centrifuged for 5 min at 2600 x g, the cells washed by re-suspending the pellets in 1 ml medium without inhibitors, centrifuged again and re-suspended in 1 ml fresh medium. The cell suspensions were then incubated under regular culture conditions for 3 days and parasite growth monitored daily by light microscopy.\nThe results for both strains are similar with no grow-back at concentrations of CTCB compounds greater than 2 to 4 µM with drug exposure longer than 4-6 hours."}, "[6]": {"test": "Pharmacokinetic studies in mice (IV and PO)", "format": "in vivo, female CD-1 mice", "settings": "mouse (female, CD-1); for concentration at 0.08 h / concentration at 0.25 h: female, CD-1, mouse, plasma, intravenous, 1 mg/kg", "method": "PK parameters for the lead compounds were determined using three mice per data point (Supplementary Methods 6.1).\nBlood samples were collected from terminal cardiac puncture at 0.08 (IV only), 0.25, 0.5, 1 (PO only), 2, 4, 8 and 24 hour time points. The whole blood was centrifuged to obtain plasma. Brains were also collected following cardiac perfusion from both sets of animals at 2 hours. Analysis of the biological samples was carried out by the company Selcia. Plasma proteins were precipitated by addition of PBS (1 volume) followed by 3 volumes of acetonitrile containing internal standard (verapamil). Following filtration through a protein precipitation plate the eluent was dried under nitrogen and re-suspended in mobile phase prior to analysis. Individual brains were homogenised in PBS and diluted to 10% w/v and divided into aliquots consisting of brain homogenate (1 volume, 0.3 ml) and 3 volumes (0.9 ml) of acetonitrile containing internal standard. Samples were centrifuged and supernatants removed and taken through a protein precipitation plate alongside an appropriate standard. Eluents were dried under nitrogen and re-suspended in mobile phase prior to analysis. Eluents were analysed by LC-MS/MS using a Phenomenex Gemini NX column (C18,30 x 2.1 mm, 3 micron). Analysis of the data was carried out using PK solutions software."}},
  "note": "Values joined by “and” are separate entries in the source; they are usually repeats but may differ in a detail not shown here. Identical values can stand only once. Like-named read-outs stand apart in the source and are kept apart here.",
  "data": [
    {"smiles": "CN(C)CCn1ccc2c(ccn2Cc2ccc(Cl)c(Cl)c2)c1=O", "note": "[CTCB-405, 1-[(3,4-Dichlorophenyl)methyl]-5-[2-(dimethylamino)ethyl] pyrrolo[3,2-c]pyridin-4-one]", "values": [
      {"measurement": "EC50", "setting": "[1]", "value": 0.25, "unit": "µM"},
      {"measurement": "Experimental plasma concentration measured @2hr after final dose", "setting": "[2]; 3 x 50 mg/kg oral", "value": "6.8 ± 2.1", "unit": "µM"},
      {"measurement": "Experimental plasma concentration measured @2hr after final dose", "setting": "[2]; 3 x 100 mg/kg oral", "value": "9.8 ± 3.1", "unit": "µM"},
      {"measurement": "tolerance of high doses", "setting": "[2]; mice, oral", "value": "well tolerated"},
      {"measurement": "plasma levels", "setting": "[2]; three doses at 100 mg kg^−1 given on two consecutive days", "value": 9.8, "unit": "µM"},
      {"measurement": "autopsied livers", "setting": "[2]; up to 300 mg kg^−1 per day", "value": "appeared normal"},
      {"measurement": "apparent toxicity", "setting": "[2]; up to 300 mg kg^−1 per day, cumulative dosing tolerance studies", "value": "no apparent toxicity"},
      {"measurement": "microsomal CLint at 5 µM", "setting": "[3]", "value": "< 8.6", "unit": "µL/min/mg"},
      {"measurement": "wash-out: grow-back after removal of drug", "setting": "[4]", "value": "no grow-back"},
      {"measurement": "wash-out: grow-back after removal of drug", "setting": "[5]", "value": "no grow-back"},
      {"measurement": "Plasma concentration, individual animal", "setting": "[6]; 1 mg/kg IV bolus, 0.08 h", "value": "0.415 µM and 0.386 µM and 140.6 ng/ml and 135.9 ng/ml"},
      {"measurement": "Plasma concentration, individual animal", "setting": "[6]; 1 mg/kg IV bolus, 0.25 h", "value": "0.37 µM and 0.489 µM and 178.1 ng/ml and 108.2 ng/ml"},
      {"measurement": "Plasma concentration, individual animal", "setting": "[6]; 1 mg/kg IV bolus, 0.5 h", "value": "0.118 µM and 0.159 µM and 57.9 ng/ml and 49.5 ng/ml"},
      {"measurement": "Plasma concentration, individual animal", "setting": "[6]; 1 mg/kg IV bolus, 2 h", "value": "0.049 µM and 0.069 µM and 0.109 µM and 25.1 ng/ml and 39.7 ng/ml and 17.8 ng/ml"},
      {"measurement": "Plasma concentration, individual animal", "setting": "[6]; 1 mg/kg IV bolus, 4 h", "value": "0.042 µM and 0.015 µM and 0.019 µM and 5.5 ng/ml and 6.9 ng/ml and 15.3 ng/ml"},
      {"measurement": "Plasma concentration, individual animal", "setting": "[6]; 1 mg/kg IV bolus, 8 h", "value": "0.011 µM and 4.0 ng/ml"},
      {"measurement": "Plasma concentration, individual animal", "setting": "[6]; 5 mg/kg oral dose (PO), 0.25 h", "value": "279.4 ng/ml and 164.7 ng/ml and 0.767 µM and 0.452 µM"},
      {"measurement": "Plasma concentration, individual animal", "setting": "[6]; 5 mg/kg oral dose (PO), 0.5 h", "value": "77.6 ng/ml and 126.4 ng/ml and 0.213 µM and 0.347 µM"},
      {"measurement": "Plasma concentration, individual animal", "setting": "[6]; 5 mg/kg oral dose (PO), 1 h", "value": "129.3 ng/ml and 229.9 ng/ml and 100.9 ng/ml and 0.355 µM and 0.631 µM and 0.277 µM"},
      {"measurement": "Plasma concentration, individual animal", "setting": "[6]; 5 mg/kg oral dose (PO), 2 h", "value": "177.4 ng/ml and 144.3 ng/ml and 303.4 ng/ml and 0.487 µM and 0.396 µM and 0.833 µM"},
      {"measurement": "Plasma concentration, individual animal", "setting": "[6]; 5 mg/kg oral dose (PO), 4 h", "value": "88.9 ng/ml and 83.8 ng/ml and 0.244 µM and 0.23 µM"},
      {"measurement": "Plasma concentration, individual animal", "setting": "[6]; 5 mg/kg oral dose (PO), 8 h", "value": "9.1 ng/ml and 0.025 µM"},
      {"measurement": "concentration at 0.08 h", "setting": "[6]; 1 mg/kg IV bolus, 0.08 h, read-out: Plasma concentration, Mean", "value": "143 ng/mL and 391 nM"},
      {"measurement": "concentration at 0.08 h", "setting": "[6]; 1 mg/kg IV bolus, 0.08 h, read-out: Plasma concentration, individual animal", "value": "373 nM and 151 ng/mL"},
      {"measurement": "concentration at 0.25 h", "setting": "[6]; 1 mg/kg IV bolus, 0.25 h, read-out: Plasma concentration, Mean", "value": "140 ng/mL and 385 nM"},
      {"measurement": "concentration at 0.25 h", "setting": "[6]; 1 mg/kg IV bolus, 0.25 h, read-out: Plasma concentration, individual animal", "value": "297 nM and 135 ng/mL"}
    ]}
  ]
}
